From patent US4507318A, “1-Aryl 2-aminomethyl cyclopropane carboxylates (Z) as drugs in the treatment of pain” (Pierre Fabre S.A., priority 1981, dated 1985) come the findings set out here.

As usually defined, the ED50 is the midpoint of the dose-response relation. The term solubility denotes the dissolved amount per volume that the medium holds.

The test system of data set [1] is mice. The experiment in a line: Hot Plate, analgesic activity. It is filed as in vivo. As to the method: The products were tested subcutaneously in mice (50 mg/kg) by the method of N. B. EDDY and D. LEIMBACH, J. Pharm. Exptl. Therap., 1953, 107, 385.
Data set [2] in a line: Toxicity study (ED50 orally and intraperitoneally, method of Miller and Tainter). Conditions: in vivo. As to the method: The most interesting compounds of the present invention were subjected to toxicity studies.
The ED50 was determined orally and intraperitoneally and calculated by the method of MILLER and TAINTER (Proc. Soc. Exper. […]. 1944, 57, 261).

Data set [3] relates to mice. The data set can be described thus: Writhing Syndrome (P.B.Q.), analgesic activity after I.P. p-benzoquinone. The conditions noted are these: Mus musculus, po, P.O., read-out: Writhing Syndrome PBQ-ED50 (P.O.). The class given is in vivo. The procedure: (a) Writhing Syndrome (P.B.Q.)
After I.P. administration of p-benzoquinone to mice, the products were tested by the method of R. OKUN, S. C. LIDDON and L. LASAGNA, J. Pharmacol. Exptl. Therap., 1963, 139, 107. The results are expressed in ED50 in Table 1.
On the technique in general: Writhing tests count abdominal constrictions after an irritant is injected.

A further data set in a line: Solubility in water. It is filed as physicochemical.
The mark [4] stands for this setting: ip, intraperitoneally, read-out: ED50 intraperitoneally.
Setting [5] is: po, per os, read-out: ED50 per os.

Structures can show the parent of a compound that is named as a salt. Where two headings read alike, the source gives them in different places.

As to `COC(=O)[C@]1(c2ccc(N)cc2)C[C@@H]1CN(C)C` (relative stereo) [Example 46], the “Hot Plate reaction time” value in the data set on mice [1] (50 mg/kg SC, mice) was 25 s. Also, the LD50 in data set [2] (setting [4]) was found to be 100 mg/kg; in data set [2] (setting [5]), 420 mg/kg. Moreover, the 50% effective dose (ED50) with mice [3] is 34 mg/kg. `CCCOC(=O)[C@]1(c2ccccc2)C[C@@H]1CN(C)C` (relative stereo) [Example 35, Fumarate of 1-phenyl 1-propyloxycarbonyl 2-dimethyl aminomethyl cyclopropane (Z)]: in “Solubility in water”, the solubility is 150 mg/mL. Consider `CC(C)OC(=O)[C@]1(c2ccccc2)C[C@@H]1CN(C)C` (relative stereo) [Example 36, Hydrochloride of 1-phenyl 1-isopropyloxy-carbonyl 2-dimethylamino methyl cyclopropane (Z)], for which, in the data set with mice [1] (50 mg/kg SC, mice), the “Hot Plate reaction time” value turned out to be 40 s. Further, the values for the LD50 in data set [2] (setting [4]) and in data set [2] (setting [5]) were 130 mg/kg and 400 mg/kg, respectively. Besides, the median effective dose (ED50) in the data set with mice [3] is 17 mg/kg. The compound `C#CC(C)(C)NC[C@H]1C[C@]1(C(=O)OCC)c1ccccc1` (relative stereo) [Example 12, Hydrochloride of 1-phenyl 1-ethoxycarbonyl-2-(1'-1'-dimethyl-2'-propynylaminomethyl)cyclopropane (Z)] had a solubility in “Solubility in water” of 30 mg/mL. Same read-out and setting: the figure for `CCOC(=O)[C@]1(c2ccccc2)C[C@@H]1CNCc1ccccc1` (relative stereo) [Example 14, Hydrochloride of 1-phenyl-1-ethoxycarbonyl 2-benzyl amino methyl cyclopropane (Z)] is 10 mg/mL.

Turning to `CCC(=O)O[C@](Cc1ccccc1)(c1ccccc1)[C@H](C)CN(C)C` [Dextropropoxyphene, reference compound], the “Hot Plate reaction time” value in the data set with mice [1] (mouse, in vivo) stood at 30 s. In addition, the median effective dose (ED50) with mice [3] turned out to be 30 mg/kg.

In turn, `CCOCCNC[C@H]1C[C@]1(C(=O)OCC)c1ccccc1` (relative stereo) [Example 13, Hydrochloride of 1-phenyl 1-ethoxycarbonyl 2-(2'-ethoxyethylaminomethyl)cyclopropane (Z)] showed a solubility in “Solubility in water” of 500 mg/mL.

With `CN(C)C[C@H]1C[C@]1(C(=O)OCc1ccccc1)c1ccccc1` (relative stereo) [Example 37, Hydrochloride of 1-phenyl 1-benzyloxy carbonyl-2-dimethyl aminomethyl cyclopropane (Z)], in the data set with mice [1] (50 mg/kg SC, mice), the “Hot Plate reaction time” value stood at 30 s. For the same compound, the LD50 was found to be 130 mg/kg in data set [2] (setting [4]) and 1000 mg/kg in data set [2] (setting [5]). In addition, the ED50 in the data set with mice [3] came to 92 mg/kg. As for `CCOC(=O)[C@]1(c2ccccc2)C[C@@H]1CN1CCCC1` (relative stereo) [Example 1, 1-phenyl 1-ethoxycarbonyl-2-pyrrolidinomethyl cyclopropane hydrochloride (Z)], the solubility in “Solubility in water” worked out at 500 mg/mL.

Consider `CCOC(=O)[C@]1(c2ccccc2)C[C@@H]1CNC` (relative stereo) [Example 3, Hydrochloride of 1-phenyl 1-ethoxycarbonyl-2-methyl amino-methyl cyclopropane (Z)], for which the solubility in “Solubility in water” is 500 mg/mL.

With `CCOC(=O)[C@]1(c2ccc(Cl)c(Cl)c2)C[C@@H]1CN(C)C` (relative stereo) [Example 45, Hydrochloride of 1-(3,4 dichlorophenyl) 1-ethoxycarbonyl 2-dimethylaminomethyl cyclopropane (Z)], in the data set on mice [1] (50 mg/kg SC, mice), the “Hot Plate reaction time” value is 26 s. The LD50 in data set [2] (setting [4]) is 170 mg/kg; in data set [2] (setting [5]), 550 mg/kg. The ED50 in the data set with mice [3] was found to be 60 mg/kg. `COC(=O)[C@]1(c2ccccc2)C[C@@H]1CN(C)C` (relative stereo) [Example 34, Hydrochloride of 1-phenyl 1-methoxycarbonyl 2-dimethyl-amino-methyl cyclopropane (Z)] yielded a solubility in “Solubility in water” of 500 mg/mL. Regarding `CCOC(=O)[C@]1(c2ccccc2)C[C@@H]1CN(C)CCc1ccccc1` (relative stereo) [Example 30], the “Hot Plate reaction time” value with mice [1] (50 mg/kg SC, mice) was found to be 20 s. Further, the results for the LD50 in data set [2] (setting [4]) and in data set [2] (setting [5]) were 110 mg/kg and 1000 mg/kg, respectively. In addition, the 50% effective dose (ED50) in the data set with mice [3] came to 80 mg/kg.

In “Solubility in water”, `CCOC(=O)[C@]1(c2ccccc2)C[C@@H]1CN(C(C)C)C(C)C` (relative stereo) [Example 16, Maleate of 1-phenyl 1-ethoxycarbonyl 2-diisopropyl aminomethyl cyclopropane (Z)] came in with a solubility of 100 mg/mL. Consider `CCOC(=O)[C@]1(c2ccc(OC)cc2)C[C@@H]1CN(C)C` (relative stereo) [Example 48, Hydrochloride of 1-(p-methoxyphenyl) 1-ethoxycarbonyl 2-dimethylaminomethyl cyclopropane (Z)], for which the “Hot Plate reaction time” value in the data set on mice [1] (50 mg/kg SC, mice) turned out to be 29 s. Also, the LD50 in data set [2] (setting [4]) came out at 110 mg/kg; in data set [2] (setting [5]), 420 mg/kg. For the same compound, the ED50 in the data set with mice [3] was determined as 95 mg/kg. On to `CCOC(=O)[C@]1(c2ccccc2)C[C@@H]1CN(C)CC` (relative stereo) [Example 17, Fumarate of 1-phenyl 1-ethoxycarbonyl 2-(N-methyl-N-ethyl-amino)methyl cyclopropane (Z)], for which the solubility in the data set “Solubility in water” turned out to be 500 mg/mL.

`CCOC(=O)[C@]1(c2ccccc2)C[C@@H]1CN(CCO)CCO` (relative stereo) [Example 7, Maleate of 1-phenyl 1-ethoxycarbonyl 2-di(2'-hydroxyethyl)amino-methyl cyclopropane (Z)]: the solubility in the data set “Solubility in water” came to 500 mg/mL.

Regarding `CCOC(=O)[C@]1(c2ccccc2)C[C@@H]1CNC(C)(C)C` (relative stereo) [Example 6, Hydrochloride of 1-phenyl 1-ethoxycarbonyl-2-tertbutylamino-methyl cyclopropane (Z)], in the data set “Solubility in water”, the solubility was determined as 170 mg/mL.

On to `CCOC(=O)[C@]1(c2ccccc2)C[C@@H]1CNCCc1ccccc1` (relative stereo) [Example 2, Hydrochloride of 1-phenyl-1-ethoxycarbonyl-2-(2-phenylethyl)amino-methyl cyclopropane (Z)], for which the solubility in “Solubility in water” is 500 mg/mL. `CCOC(=O)[C@]1(c2ccccc2)C[C@@H]1CN1CCN(c2ccccc2)CC1` (relative stereo) [Example 8, Dihydrochloride of 1-phenyl 1-ethoxycarbonyl 2-(4'-phenyl-piperazinomethyl)cyclopropane (Z)] had a solubility in the data set “Solubility in water” of 5 mg/mL. For `COC(=O)[C@]1(c2ccc([N+](=O)[O-])cc2)C[C@@H]1CN(C)C` (relative stereo) [Example 47, Hydrochloride of 1-(p-nitrophenyl) 1-methoxycarbonyl 2-dimethylaminomethyl cyclopropane (Z)], the “Hot Plate reaction time” value in the data set with mice [1] (50 mg/kg SC, mice) was found to be 20 s. The LD50 in data set [2] (setting [4]) was determined as 250 mg/kg; in data set [2] (setting [5]), 1000 mg/kg. For the same compound, in the data set on mice [3], the ED50 was 21 mg/kg.

`CCOC(=O)[C@]1(c2ccccc2)C[C@@H]1CN(C)Cc1ccccc1` (relative stereo) [Example 5, Hydrochloride of 1-phenyl 1-ethoxycarbonyl-2-(benzylmethylaminomethyl)cyclopropane (Z)] had a solubility in “Solubility in water” of 100 mg/mL. Same read-out and setting: the figure for `CCOC(=O)[C@]1(c2ccccc2)C[C@@H]1CN(C)CCN(C)C` (relative stereo) [Example 21, Dihydrochloride of 1-phenyl 1-ethoxycarbonyl-2-(N-methyl N-(2'-dimethylamino)ethyl)aminomethyl cyclopropane (Z)] is 500 mg/mL. Same read-out and setting: the figure for `CCOC(=O)[C@]1(c2ccccc2)C[C@@H]1CNC(C)C` (relative stereo) [Example 15, Hydrochloride of 1-phenyl 1-ethoxycarbonyl 2-isopropyl aminomethyl cyclopropane (Z)] is 500 mg/mL. In turn, `CCOC(=O)[C@]1(c2ccccc2)C[C@@H]1CN(C)CCO` (relative stereo) [Example 10, Fumarate of 1-phenyl 1-ethoxycarbonyl 2-N-(2'-hydroxyethyl)N-methyl amino-methyl cyclopropane (Z)] gave a solubility in “Solubility in water” of 80 mg/mL. Still for that read-out and setting: the figure for `CCOC(=O)[C@]1(c2ccccc2)C[C@@H]1CN(CC)CC` (relative stereo) [Example 4, Hydrochloride of 1-phenyl 1-ethoxycarbonyl-2-diethyl amino-methyl cyclopropane (Z)] is 500 mg/mL; for `CCCCCN(C)C[C@H]1C[C@]1(C(=O)OCC)c1ccccc1` (relative stereo) [Example 18, Fumarate of 1-phenyl 1-ethoxycarbonyl 2-(N-methyl-N-pentylamino)methyl cyclopropane (Z)] it is 30 mg/mL. On to `CCOC(=O)[C@]1(c2ccc(Cl)cc2)C[C@@H]1CN(C)C` (relative stereo) [Example 41, 1-(4'-chlorophenyl) 1-ethoxycarbonyl 2-dimethylaminomethyl cyclopropane (Z) hydrochloride], for which the “Hot Plate reaction time” value in the data set with mice [1] (50 mg/kg SC, mice) amounted to 39 s. The LD50 in data set [2] (setting [4]) was determined as 120 mg/kg; in data set [2] (setting [5]), 400 mg/kg. The ED50 in the data set with mice [3] amounted to 19 mg/kg. For `CCOC(=O)[C@]1(c2cccc(Cl)c2)C[C@@H]1CN(C)C` (relative stereo) [Example 44, Maleate of 1-(m-chlorophenyl) 1-ethoxycarbonyl 2-dimethylaminomethyl cyclopropane (Z)] the same measures were 28 s, 170 mg/kg, 760 mg/kg and 30 mg/kg. In the case of `CCOC(=O)[C@]1(c2ccccc2)C[C@@H]1CN1CCOCC1` (relative stereo) [Example 9, Hydrochloride of 1-phenyl 1-ethoxycarbonyl 2-morpholino methyl cyclopropane (Z)], the solubility in the data set “Solubility in water” came out at 500 mg/mL.
